SMILES | melting point
C[C@]1(COC(=O)N2CCN(c3ccc(OC(F)(F)F)cc3)CC2)Cn2cc([N+](=O)[O-])nc2O1 | 168 to 169 °C
C[C@]1(COC(=O)N2CCN(N=Cc3ccc(C(F)(F)F)cc3)CC2)Cn2cc([N+](=O)[O-])nc2O1 | 176 to 178 °C
C[C@]1(COC(=O)N2CCC(Nc3ccc(C(F)(F)F)cc3)CC2)Cn2cc([N+](=O)[O-])nc2O1 | 137 to 140 °C
C[C@]1(COC(=O)N2CCC(Oc3ccc(C(F)(F)F)cc3)CC2)Cn2cc([N+](=O)[O-])nc2O1 | 165 to 166 °C
CC1(COc2ccc(N3CCN(Cc4ccc(C(F)(F)F)cc4)CC3)cc2)Cn2cc([N+](=O)[O-])nc2O1 (centres unmarked) | 171.8 to 173.1 °C
CC1(COc2ccc(C3CCN(Cc4ccc(OC(F)(F)F)cc4)CC3)cc2)Cn2cc([N+](=O)[O-])nc2O1 (centres unmarked) | 160.6 to 161.1 °C
C[C@]1(COc2ccc(OC(F)(F)F)cc2)Cn2cc([N+](=O)[O-])nc2O1 | 176.5 to 178 °C
CC(C)(C)OC(=O)c1ccc(NC(=O)N2CCC3(CC2)Cn2cc([N+](=O)[O-])nc2O3)cc1 | > 300 °C
C[C@]1(COc2ccc(N3CCN(c4ccc(OC(F)(F)F)cc4)CC3)cc2)Cn2cc([N+](=O)[O-])nc2O1 | 262.5 to 265 °C
C[C@]1(CN2CCC(N3CCN(c4ccc(OC(F)(F)F)cc4)CC3)CC2)Cn2cc([N+](=O)[O-])nc2O1 | 193 to 194 °C
C[C@]1(CN2CCN(C3CCN(C(=O)c4ccc(OC(F)(F)F)cc4)CC3)CC2)Cn2cc([N+](=O)[O-])nc2O1 | 133 to 134 °C
CC(C)(C)OC(=O)N1CCN(C2CCN(C[C@@]3(C)Cn4cc([N+](=O)[O-])nc4O3)CC2)CC1 | 184 to 185 °C
C[C@]1(CN2CCC(N3CCN(CC=Cc4ccc(OC(F)(F)F)cc4)CC3)CC2)Cn2cc([N+](=O)[O-])nc2O1 | 174 to 175 °C
O=[N+]([O-])c1cn2c(n1)OC1(CCN(c3ccc(OC(F)(F)F)cc3)CC1)C2 | 235.9 to 236.8 °C (dec.)
O=[N+]([O-])c1cn2c(n1)O[C@@H](COc1ccc(N3CCC(Oc4ccc(OC(F)(F)F)cc4)CC3)cc1)C2 | 157 to 160 °C
CC1(COCc2ccc(Oc3ccc(OC(F)(F)F)cc3)cc2)Cn2cc([N+](=O)[O-])nc2O1 (centres unmarked) | 107.9 to 109.3 °C
O=[N+]([O-])c1cn2c(n1)OC(COc1ccc(N3CCC(Oc4ccc(OC(F)(F)F)cc4)CC3)cc1)C2 (centres unmarked) | 173.2 to 177.3 °C
C[C@]1(COc2ccc(N3CCN(C(=O)OCc4cc5cc(Cl)ccc5o4)CC3)cc2)Cn2cc([N+](=O)[O-])nc2O1 | 195 to 197 °C
C[C@]1(COc2ccc(C3=CCN(C(=O)OCc4ccc(OC(F)(F)F)cc4)CC3)cc2)Cn2cc([N+](=O)[O-])nc2O1 | 174.3 to 174.8 °C
CCOC(=O)N1CCN(C(=O)c2ccc(OC[C@@]3(C)Cn4cc([N+](=O)[O-])nc4O3)cc2)CC1 | 132 to 135 °C
C[C@]1(COc2ccc(C(=O)N3CCN(Cc4ccc(OC(F)(F)F)cc4)CC3)cc2)Cn2cc([N+](=O)[O-])nc2O1 | 155 to 156 °C
CN(CCOc1ccc(OC(F)(F)F)cc1)C[C@@]1(C)Cn2cc([N+](=O)[O-])nc2O1 | 112.5 to 115 °C
C[C@]1(CN(CCOc2ccc(OC(F)(F)F)cc2)Cc2ccccc2)Cn2cc([N+](=O)[O-])nc2O1 | 96.5 to 97 °C
COc1ccc(CN(C)C[C@@]2(C)Cn3cc([N+](=O)[O-])nc3O2)cc1 | 144 to 147 °C
CN(C[C@@]1(C)Cn2cc([N+](=O)[O-])nc2O1)c1ccc(Cl)cc1 | 174 to 175 °C
CN(CCN1CCN(Cc2ccc(C(F)(F)F)cc2)CC1)C[C@@]1(C)Cn2cc([N+](=O)[O-])nc2O1 | 102 to 104.5 °C

SMILES | melting point
CC1(CNC(=O)OCc2ccc(F)cc2)Cn2cc([N+](=O)[O-])nc2O1 (centres unmarked) | 200.4 to 202.1 °C
CN(CC1(C)Cn2cc([N+](=O)[O-])nc2O1)C(=O)OCc1ccc(F)cc1 (centres unmarked) | 168.9 to 169.9 °C
CN(CC1Cn2cc([N+](=O)[O-])nc2O1)C(=O)OCc1ccc(F)cc1 (centres unmarked) | 124.5 to 128.1 °C
CNC(C1CCN(c2ccc(C#N)cc2)CC1)[C@]1(C)Cn2cc([N+](=O)[O-])nc2O1 (some centres unmarked) | 149 to 152 °C
CNC(C1CCN(C(=O)OC(C)(C)C)CC1)[C@]1(C)Cn2cc([N+](=O)[O-])nc2O1 (some centres unmarked) | 138.5 to 140.3 °C
CC1(CN2CCC(Oc3ccc(OC(F)(F)F)cc3)CC2)Cn2cc([N+](=O)[O-])nc2O1 (centres unmarked) | 117 to 119 °C
C[C@]1(CN2CCC(Nc3ccc(OC(F)(F)F)cc3)CC2)Cn2cc([N+](=O)[O-])nc2O1 | 107.5 to 109 °C
CC(C)(C)OC(=O)NC1CCN(C[C@@]2(C)Cn3cc([N+](=O)[O-])nc3O2)CC1 | 158.5 to 160.7 °C
CC(C)(C)OC(=O)N1CCN(CC2Cn3cc([N+](=O)[O-])nc3O2)CC1 (centres unmarked) | 185 to 188 °C (dec.)
O=C(OCc1ccc(C(F)(F)F)cc1)N1CCN(CC2Cn3cc([N+](=O)[O-])nc3O2)CC1 (centres unmarked) | 120 to 122 °C
O=[N+]([O-])c1cn2c(n1)OC(CN1CCN(c3nc4ccccc4o3)CC1)C2 (centres unmarked) | 206 to 209 °C (dec.)
C[C@]1(CO)Cn2cc([N+](=O)[O-])nc2O1 | 162 to 163 °C
O=[N+]([O-])c1cn2c(n1)O[C@@H](CN1CCN(c3ccc(C(F)(F)F)cc3)CC1)C2 | 175.8 to 176.6 °C
O=[N+]([O-])c1cn2c(n1)O[C@@H](CN1CCN(Cc3ccc(C(F)(F)F)cc3)CC1)C2 | 149 to 150 °C
C[C@]1(COc2nc3ccccc3o2)Cn2cc([N+](=O)[O-])nc2O1 | 232 to 233 °C
CC1(Cn2nc(-c3ccc(-c4ccccc4)cc3)oc2=O)Cn2cc([N+](=O)[O-])nc2O1 (centres unmarked) | 248 to 249 °C
CC1(Cn2nc(CCc3ccc(Cl)cc3)oc2=O)Cn2cc([N+](=O)[O-])nc2O1 (centres unmarked) | 139 to 140 °C
Cn1c(=O)n(CC2(C)Cn3cc([N+](=O)[O-])nc3O2)c2ccc(Cl)cc21 (centres unmarked) | 261.3 to 263.3 °C
CC(C)n1c(=O)n(CC2(C)Cn3cc([N+](=O)[O-])nc3O2)c2cc(Cl)ccc21 (centres unmarked) | 240.5 to 244.8 °C
CC1(CN2CCN(Cc3ccc(Br)cc3)C2=O)Cn2cc([N+](=O)[O-])nc2O1 (centres unmarked) | 205.7 to 208.1 °C
CC1(CCc2nnnn2-c2ccc(Cl)cc2)Cn2cc([N+](=O)[O-])nc2O1 (centres unmarked) | 198 to 200 °C
O=C(OCc1ccc(C(F)(F)F)cc1)N1CCN(C(=O)N2CCC3(CC2)Cn2cc([N+](=O)[O-])nc2O3)CC1 | 221 to 223 °C
CN(C)c1ccc(NC(=O)N2CCC3(CC2)Cn2cc([N+](=O)[O-])nc2O3)cc1 | 244 to 247 °C (dec.)
O=C(CN1CCN(C(=O)OCc2ccc(OC(F)(F)F)cc2)CC1)N1CCC2(CC1)Cn1cc([N+](=O)[O-])nc1O2 | 137 to 139 °C
CCN(CC)C(=O)OC[C@@]1(C)Cn2cc([N+](=O)[O-])nc2O1 | 196 to 197 °C
C[C@]1(COC(=O)N(c2ccc(Cl)cc2)c2ccc(Cl)cc2)Cn2cc([N+](=O)[O-])nc2O1 | 200 to 201 °C

Other lines, results leading:

melting point | SMILES
161 to 163 °C | C[C@]1(COC(=O)N2CCN(Cc3ccc(Cl)cc3)CC2)Cn2cc([N+](=O)[O-])nc2O1
242 to 244 °C | O=C(Oc1ccccc1)N1CCC2(CC1)Cn1cc([N+](=O)[O-])nc1O2
148 to 149 °C | C[C@]1(CN2CCC(N3CCN(Cc4ccc(Cl)cc4)CC3)CC2)Cn2cc([N+](=O)[O-])nc2O1
210.5 to 212 °C | CCOC(=O)N1CCN(c2ccc(OC[C@@]3(C)Cn4cc([N+](=O)[O-])nc4O3)cc2)CC1
166 to 167 °C | CC(C)(C)OC(=O)N1CCN(CCCC2(C)Cn3cc([N+](=O)[O-])nc3O2)CC1 (centres unmarked)
176 to 178 °C | CC1(CCCN2CCN(Cc3ccc(-c4ccccc4)cc3)CC2)Cn2cc([N+](=O)[O-])nc2O1 (centres unmarked)
189 to 191 °C | CC1(CN2CCN(C(=O)Cc3ccc(Cl)c(Cl)c3)CC2)Cn2cc([N+](=O)[O-])nc2O1 (centres unmarked)
123 to 126 °C | CC1(CN2CCN(CCCn3c(=O)oc4ccccc43)CC2)Cn2cc([N+](=O)[O-])nc2O1 (centres unmarked)
130.5 to 132.1 °C | CC1(CN2CCN(C(=O)OCc3ccccc3)CC2)Cn2cc([N+](=O)[O-])nc2O1.Cl (centres unmarked)
175 to 176.3 °C | CC(C)NC(=O)N1CCN(CC2(C)Cn3cc([N+](=O)[O-])nc3O2)CC1 (centres unmarked)
228 to 229.5 °C | CC1(CN2CCN(c3nc4ccccc4o3)CC2)Cn2cc([N+](=O)[O-])nc2O1 (centres unmarked)
145 to 147.7 °C | C[C@]1(CN2CCN(c3cccnc3)CC2)Cn2cc([N+](=O)[O-])nc2O1
139.5 to 140.5 °C | C[C@]1(CN2CCN(C(=O)OCc3ccc(OC(F)(F)F)cc3)CC2)Cn2cc([N+](=O)[O-])nc2O1
110 to 112 °C | C[C@]1(CN2CCN(Cc3ccc(C(F)(F)F)cc3)CC2)Cn2cc([N+](=O)[O-])nc2O1
174.3 to 175.5 °C | Cc1nc(-c2ccc(Cl)cc2)sc1CN1CCN(C[C@@]2(C)Cn3cc([N+](=O)[O-])nc3O2)CC1
175.2 to 175.9 °C | CC1(CN2CCN(C(=O)Cc3ccccc3)CC2)Cn2cc([N+](=O)[O-])nc2O1 (centres unmarked)
150 to 151 °C | C[C@]1(CN2CCN(S(=O)(=O)CCCc3ccc(Cl)cc3)CC2)Cn2cc([N+](=O)[O-])nc2O1
176 to 177 °C | C[C@]1(CN2CCN(S(=O)(=O)CCCCc3ccc(Cl)cc3)CC2)Cn2cc([N+](=O)[O-])nc2O1
182 to 184 °C | CC1(CN2CCN(S(=O)(=O)CCc3ccc(Cl)cc3)CC2)Cn2cc([N+](=O)[O-])nc2O1 (centres unmarked)
167 to 168 °C | COc1ccc(NC(=O)N2CCN(CC3(C)Cn4cc([N+](=O)[O-])nc4O3)CC2)cc1 (centres unmarked)
202 to 203 °C (dec.) | Cc1ccc(NC(=O)N2CCN(CC3(C)Cn4cc([N+](=O)[O-])nc4O3)CC2)cc1 (centres unmarked)
100.4 to 102.4 °C | CN(C(=O)N1CCN(C[C@@]2(C)Cn3cc([N+](=O)[O-])nc3O2)CC1)c1ccc(C(F)(F)F)cc1
181.7 to 184.6 °C | CC1(Cn2c(=O)n(C3CCN(C(=O)OCc4ccccc4)CC3)c3ccccc32)Cn2cc([N+](=O)[O-])nc2O1 (centres unmarked)
153 to 155.3 °C | C[C@]1(CN2CCc3ccccc3C2)Cn2cc([N+](=O)[O-])nc2O1
244 to 247 °C (dec.) | O=C(NCc1ccccc1)N1CCC2(CC1)Cn1cc([N+](=O)[O-])nc1O2

Source: patent publication US7262212B2, “2,3-dihydro-6-nitroimidazo[2,1-b]oxazoles” (Otsuka Pharmaceutical Co., Ltd., priority 2002, dated 2007)
